Active and inactive are the calls of the source. The rule behind the calls is not given here.
How the values were obtained:
U-87 MG [1] = assay: Antiproliferation activity against human U-87 MG cells assessed as growth inhibition measured after 1 hr by MTT assay; format: functional, cell-based, U-87MG ATCC
Histone deacetylase 1 = Histone deacetylase 1 (Homo sapiens, UniProt Q13547); assay: Inhibition of human recombinant HDAC1 expressed in baculovirus infected insect cells using [RHKK(Ac)] fluorogenic substrate
Histone deacetylase 3 = Histone deacetylase 3 (Homo sapiens, UniProt O15379); assay: Inhibition of human recombinant HDAC3 using [RHKK(Ac)] fluorogenic substrate
[2] = target: T1, Protein deacetylase HDAC6 (Homo sapiens, UniProt Q9UBN7); assay: Inhibition of human recombinant HDAC6 expressed in baculovirus infected insect cells using [RHKK(Ac)] fluorogenic substrate
T1 sequence (Q9UBN7 whole entry): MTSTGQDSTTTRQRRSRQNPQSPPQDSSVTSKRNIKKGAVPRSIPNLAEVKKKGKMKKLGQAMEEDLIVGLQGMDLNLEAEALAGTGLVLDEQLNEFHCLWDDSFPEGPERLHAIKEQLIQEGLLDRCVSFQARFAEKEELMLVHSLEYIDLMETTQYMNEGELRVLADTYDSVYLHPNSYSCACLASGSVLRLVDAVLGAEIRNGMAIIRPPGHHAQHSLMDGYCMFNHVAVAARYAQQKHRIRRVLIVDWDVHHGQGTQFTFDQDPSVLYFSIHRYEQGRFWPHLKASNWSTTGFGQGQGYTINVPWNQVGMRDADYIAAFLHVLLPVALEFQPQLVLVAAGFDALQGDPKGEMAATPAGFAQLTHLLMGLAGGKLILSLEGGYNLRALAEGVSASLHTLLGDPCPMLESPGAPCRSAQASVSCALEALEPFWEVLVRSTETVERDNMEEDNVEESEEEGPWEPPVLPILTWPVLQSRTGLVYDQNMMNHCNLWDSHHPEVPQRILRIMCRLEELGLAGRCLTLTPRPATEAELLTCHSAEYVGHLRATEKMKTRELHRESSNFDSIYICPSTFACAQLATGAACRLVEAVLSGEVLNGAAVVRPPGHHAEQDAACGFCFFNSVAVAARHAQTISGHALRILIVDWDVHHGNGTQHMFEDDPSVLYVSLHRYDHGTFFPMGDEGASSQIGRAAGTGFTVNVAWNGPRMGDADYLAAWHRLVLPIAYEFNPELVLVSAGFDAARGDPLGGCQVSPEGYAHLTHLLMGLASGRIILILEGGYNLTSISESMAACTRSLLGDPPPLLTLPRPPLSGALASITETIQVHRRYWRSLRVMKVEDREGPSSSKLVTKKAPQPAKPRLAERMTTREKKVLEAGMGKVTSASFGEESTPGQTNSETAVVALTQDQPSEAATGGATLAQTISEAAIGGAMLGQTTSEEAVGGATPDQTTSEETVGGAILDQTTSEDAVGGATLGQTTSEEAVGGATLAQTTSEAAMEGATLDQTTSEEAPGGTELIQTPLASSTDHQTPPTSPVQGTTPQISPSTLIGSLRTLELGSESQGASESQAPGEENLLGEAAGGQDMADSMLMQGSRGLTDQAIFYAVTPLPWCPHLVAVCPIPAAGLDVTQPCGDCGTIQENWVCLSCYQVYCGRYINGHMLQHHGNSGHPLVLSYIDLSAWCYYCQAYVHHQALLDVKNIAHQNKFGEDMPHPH

Histone deacetylase 8 = target: T2, Histone deacetylase 8 (Homo sapiens, UniProt Q9BY41); assay: Inhibition of human recombinant HDAC8 using [RHKK(Ac)] fluorogenic substrate
T2 sequence (Q9BY41 whole entry): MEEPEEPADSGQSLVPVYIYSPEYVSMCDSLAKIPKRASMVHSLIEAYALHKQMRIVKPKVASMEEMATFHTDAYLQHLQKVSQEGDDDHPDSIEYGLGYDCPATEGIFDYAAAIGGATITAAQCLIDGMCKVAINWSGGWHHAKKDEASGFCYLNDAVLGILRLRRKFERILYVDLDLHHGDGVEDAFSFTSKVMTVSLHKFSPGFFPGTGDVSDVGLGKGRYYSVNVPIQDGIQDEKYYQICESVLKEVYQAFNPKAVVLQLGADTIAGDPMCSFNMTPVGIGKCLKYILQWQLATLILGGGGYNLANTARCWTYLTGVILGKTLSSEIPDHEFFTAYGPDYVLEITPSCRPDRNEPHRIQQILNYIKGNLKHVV

U-87 MG [3] = assay: Antiproliferation activity against human U-87 MG cells assessed as growth inhibition at 10 uM after 3 days by MTT assay; format: functional, U-87MG ATCC; details: 72 h, time 3 day
U-87 MG [4] = assay: Antiproliferation activity against human U-87 MG cells assessed as decrease in cell growth at 30 uM after 3 days by MTT assay; format: functional, U-87MG ATCC; design: scale not given: the % may be the effect or the level left; details: time 3 day
A 172 [5] = assay: Induction of cell cycle arrest in human A 172 cells assessed as accumulation at G2/M phase by propidium iodide staining based flow cytometric analysis; format: functional; details: dose microM <=10
A 172 [6] = assay: Induction of cell cycle arrest in human A 172 cells assessed as accumulation at G0/G1 phase by propidium iodide staining based flow cytometric analysis; format: functional; details: dose microM <=10
A 172 [7] = assay: Induction of apoptosis in human A 172 cells assessed as upregulation of activated caspase 3 protein at 3 uM after 24 hrs by western blot analysis; format: functional, cell-based
A 172 [8] = assay: Induction of apoptosis in human A 172 cells assessed as upregulation of cleaved PARP at 3 uM after 24 hrs by western blot analysis; format: functional, cell-based
U-87 MG [9] = assay: Antiproliferation activity against human U-87 MG cells assessed as decrease in cell growth at 30 uM incubated for 2 days by MTT assay; format: functional, cell-based; details: U-87MG ATCC, time 2.0 day
A 172 [10] = assay: Induction of cell cycle arrest in human A 172 cells assessed as accumulation at S phase upto 10 uM by propidium iodide staining based flow cytometric analysis; format: functional; details: dose microM <=10
A 172 [11] = assay: Induction of cell cycle arrest in human A 172 cells assessed as sub-G1 population upto 10 uM after 2 days by flow cytometry/PI staining assay; format: functional, cell-based; details: dose microM <=10, time 2.0 day
[12] = Permeability of compound by PAMPA-BBB assay
U-87 MG [13] = assay: Antiproliferation activity against TMZ resistant human U-87 MG R-50 cells assessed as growth inhibition at 3 uM by MTT assay; format: functional, cell-based; details: U-87MG ATCC
Glioblastoma cell line = assay: Antiproliferation activity against TMZ resistant human glioblastoma cell P1S assessed as growth inhibition at 3 uM by MTT assay; format: functional

Chain of Histone deacetylase 3 (O15379 whole entry): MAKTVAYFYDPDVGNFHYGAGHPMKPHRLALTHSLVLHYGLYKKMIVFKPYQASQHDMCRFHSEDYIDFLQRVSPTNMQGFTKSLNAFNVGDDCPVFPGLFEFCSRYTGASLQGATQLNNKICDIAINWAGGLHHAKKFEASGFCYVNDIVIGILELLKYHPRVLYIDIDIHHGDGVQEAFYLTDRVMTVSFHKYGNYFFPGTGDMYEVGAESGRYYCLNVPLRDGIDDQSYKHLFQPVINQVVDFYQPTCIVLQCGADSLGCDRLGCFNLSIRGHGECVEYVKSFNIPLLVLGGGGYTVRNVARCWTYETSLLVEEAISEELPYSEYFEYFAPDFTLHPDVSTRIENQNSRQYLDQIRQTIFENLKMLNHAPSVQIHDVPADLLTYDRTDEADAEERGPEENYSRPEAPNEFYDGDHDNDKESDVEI
Chain of Histone deacetylase 1 (Q13547 whole entry): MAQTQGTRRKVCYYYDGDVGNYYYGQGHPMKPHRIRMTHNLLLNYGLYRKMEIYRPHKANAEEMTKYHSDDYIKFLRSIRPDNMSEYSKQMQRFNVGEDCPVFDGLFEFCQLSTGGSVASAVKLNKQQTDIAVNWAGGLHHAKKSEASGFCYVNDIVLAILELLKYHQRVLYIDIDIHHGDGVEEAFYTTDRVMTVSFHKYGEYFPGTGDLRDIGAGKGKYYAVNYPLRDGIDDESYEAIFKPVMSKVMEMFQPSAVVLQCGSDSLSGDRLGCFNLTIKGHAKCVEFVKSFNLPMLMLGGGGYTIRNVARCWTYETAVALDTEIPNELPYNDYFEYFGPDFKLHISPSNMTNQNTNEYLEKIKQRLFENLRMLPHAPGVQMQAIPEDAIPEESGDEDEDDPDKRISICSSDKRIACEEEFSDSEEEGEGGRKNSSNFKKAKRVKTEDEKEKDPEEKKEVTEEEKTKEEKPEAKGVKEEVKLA

IC50 (U-87 MG [1]) | IC50 (Histone deacetylase 1) | IC50 (Histone deacetylase 3) | IC50 [2] | IC50 (Histone deacetylase 8) | SMILES | inhibition at 10 µM (U-87 MG [3]) | other results
33600 nM | 2800 nM | 4130 nM | 227 nM | 1070 nM | CC12CC3CC(C)(C1)CC(NC(=O)CCCCCCCC(=O)NO)(C3)C2 | – | –
45200 nM | – | – | 3200 nM | 8630 nM | CC12CC3CC(C)(C1)CC(NCc1ccc(C(=O)NO)cc1)(C3)C2 | – | –
1400 nM | 679 nM | 652 nM | 60.8 nM | 703 nM | CC12CC3CC(C)(C1)CC(NCc1cccc(NC(=O)CCCCCCC(=O)NO)c1)(C3)C2 | 90% | –
23600 nM | – | – | – | – | CC12CC3CC(C)(C1)CC(N)(C3)C2.Cl [MEMANTINE HYDROCHLORIDE] | – | Activity (U-87 MG [4]): 50%; Activity (A 172 [5]): 28%; Activity (A 172 [6]): 57%; Activity (A 172 [7]): inactive; Activity (A 172 [8]): inactive; Activity (U-87 MG [9]): inactive; Activity (A 172 [10]): 10%
2400 nM | 11000 nM | – | 76.8 nM | 15300 nM | CC12CC3CC(C)(C1)CC(NCc1ccc(NCc4ccc(C(=O)NO)cc4)cc1)(C3)C2 | 90% | –
2210 nM | 1740 nM | 2890 nM | 93.7 nM | 562 nM | CC12CC3CC(C)(C1)CC(NS(=O)(=O)c1cccc(/C=C/C(=O)NO)c1)(C3)C2 | 90% | –
18500 nM | 4430 nM | 12600 nM | 360 nM | 831 nM | CC12CC3CC(C)(C1)CC(NC(=O)CCCCCCC(=O)NO)(C3)C2 | – | –
16100 nM | 16100 nM | – | 206 nM | 4140 nM | CC12CC3CC(C)(C1)CC(NC(=O)CCCCCC(=O)NO)(C3)C2 | – | –
9460 nM | 5240 nM | 3450 nM | 270 nM | 707 nM | CC12CC3CC(C)(C1)CC(NC(=O)CCCCCCCCC(=O)NO)(C3)C2 | – | –
1990 nM | 950 nM | 1030 nM | 103 nM | 7380 nM | CC12CC3CC(C)(C1)CC(NS(=O)(=O)c1ccc(/C=C/C(=O)NO)cc1)(C3)C2 | 90% | Activity (A 172 [5]): Dose-Dependent Effect; Activity (A 172 [6]): Dose-Dependent Effect; Activity (A 172 [7]): Active; Activity (A 172 [8]): Active; Activity (A 172 [11]): Active
– | – | – | – | – | O=C(CCCCCCC(=O)Nc1ccccc1)NO [VORINOSTAT] | – | permeability [12]: 1 10^-5 cm/s
1870 nM | – | 2810 nM | 77 nM | 1030 nM | CC12CC3CC(C)(C1)CC(NCc1ccc(/C=C/C(=O)NO)cc1)(C3)C2 | 90% | Activity (U-87 MG [13]): inactive; Activity (Glioblastoma cell line): inactive; Activity (A 172 [5]): Dose-Dependent Effect; Activity (A 172 [6]): Dose-Dependent Effect; Activity (A 172 [7]): Active; Activity (A 172 [8]): Active; Activity (A 172 [11]): Active
